{
  "source": "patent US20240262819A1",
  "about": "“NOVEL COMPOUNDS HAVING INHIBITORY ACTIVITY AGAINST GLUCOSYLCERAMIDE SYNTHASE OR PHARMACEUTICALLY ACCEPTABLE SALT THEREOF, PROCESSES FOR PREPARING THE SAME, AND PHARMACEUTICAL COMPOSITIONS COMPRISING THE SAME” (YUHAN CORPORATION, priority 2021, published 2024)",
  "tested_on": "GM1 production in Jurkat cells",
  "test": "cells",
  "assay_type": "cell-based",
  "note": "Read-outs that look alike come from different tables or passages of the source.",
  "data": [
    {"molecule": "CCc1cccc(-c2ccc3c(c2)CC(C)(C)[C@H]3NC(=O)O[C@@H]2CN3CCC2CC3)c1", "note": "[Example 1, (S)-quinuclidin-3-yl((R)-5-(3-ethylphenyl)-2,2-dimethyl-2,3-dihydro-1H-inden-1-yl)carbamate]", "values": [
      {"measurement": "IC50", "setting": "Homo sapiens, Jurkat, 72 h", "result": 4.53, "unit": "nM"}
    ]},
    {"molecule": "CC(C)c1cccc(-c2ccc3c(c2)CC(C)(C)[C@H]3NC(=O)O[C@@H]2CN3CCC2CC3)c1", "note": "[Example 2, (S)-quinuclidin-3-yl((R)-5-(3-isopropylphenyl)-2,2-dimethyl-2,3-dihydro-1H-inden-1-yl)carbamate]", "values": [
      {"measurement": "IC50", "setting": "Homo sapiens, Jurkat, 72 h", "result": 3.75, "unit": "nM"}
    ]},
    {"molecule": "CCCCc1ccc(-c2ccc3c(c2)CC(C)(C)[C@H]3NC(=O)O[C@@H]2CN3CCC2CC3)cc1", "note": "[Example 3, (S)-quinuclidin-3-yl((R)-5-(4-butylphenyl)-2,2-dimethyl-2,3-dihydro-1H-inden-1-yl)carbamate]", "values": [
      {"measurement": "IC50", "setting": "Homo sapiens, Jurkat, 72 h", "result": 1.24, "unit": "nM"}
    ]},
    {"molecule": "CCCc1ccc(-c2ccc3c(c2)CC(C)(C)[C@H]3NC(=O)O[C@@H]2CN3CCC2CC3)cc1", "note": "[Example 4, (S)-quinuclidin-3-yl((R)-2,2-dimethyl-5-(4-propylphenyl)-2,3-dihydro-1H-inden-1-yl)carbamate]", "values": [
      {"measurement": "IC50", "setting": "Homo sapiens, Jurkat, 72 h", "result": 3.74, "unit": "nM"}
    ]},
    {"molecule": "CC(C)Cc1ccc(-c2ccc3c(c2)CC(C)(C)[C@H]3NC(=O)O[C@@H]2CN3CCC2CC3)cc1", "note": "[Example 5, (S)-quinuclidin-3-yl((R)-5-(4-isobutylphenyl)-2,2-dimethyl-2,3-dihydro-1H-inden-1-yl)carbamate]", "values": [
      {"measurement": "IC50", "setting": "Homo sapiens, Jurkat, 72 h", "result": 4.14, "unit": "nM"}
    ]},
    {"molecule": "CC(C)(C)c1ccc(-c2ccc3c(c2)CC(C)(C)[C@H]3NC(=O)O[C@@H]2CN3CCC2CC3)cc1", "note": "[Example 6, (S)-quinuclidin-3-yl((R)-5-(4-(tert-butyl)phenyl)-2,2-dimethyl-2,3-dihydro-1H-inden-1-yl)carbamate]", "values": [
      {"measurement": "IC50", "setting": "Homo sapiens, Jurkat, 72 h", "result": 9.97, "unit": "nM"}
    ]},
    {"molecule": "CCOc1ccc(-c2ccc3c(c2)CC(C)(C)[C@H]3NC(=O)O[C@@H]2CN3CCC2CC3)cc1", "note": "[Example 7, (S)-quinuclidin-3-yl((R)-5-(4-ethoxyphenyl)-2,2-dimethyl-2,3-dihydro-1H-inden-1-yl)carbamate]", "values": [
      {"measurement": "IC50", "setting": "Homo sapiens, Jurkat, 72 h", "result": 13.7, "unit": "nM"}
    ]},
    {"molecule": "CC(C)COc1ccc(-c2ccc3c(c2)CC(C)(C)[C@H]3NC(=O)O[C@@H]2CN3CCC2CC3)cc1", "note": "[Example 8, (S)-quinuclidin-3-yl((R)-5-(4-isobutoxyphenyl)-2,2-dimethyl-2,3-dihydro-1H-inden-1-yl)carbamate]", "values": [
      {"measurement": "IC50", "setting": "Homo sapiens, Jurkat, 72 h", "result": 1.09, "unit": "nM"}
    ]},
    {"molecule": "COc1ccc(-c2ccc3c(c2)CC(C)(C)[C@H]3NC(=O)O[C@@H]2CN3CCC2CC3)c(F)c1", "note": "[Example 12, (S)-quinuclidin-3-yl((R)-5-(2-fluoro-4-methoxyphenyl)-2,2-dimethyl-2,3-dihydro-1H-inden-1-yl) carbamate]", "values": [
      {"measurement": "IC50", "setting": "read-out: IC50", "result": 5.94, "unit": "nM"}
    ]},
    {"molecule": "CC1(C)Cc2cc(-c3ccc(OCC4CC4)nc3)ccc2[C@@H]1NC(=O)O[C@@H]1CN2CCC1CC2", "note": "[Example 13, (S)-quinuclidin-3-yl((R)-5-(6-(cyclopropylmethoxy)pyridin-3-yl)-2,2-dimethyl-2,3-dihydro-1H-inden-1-yl)carbamate]", "values": [
      {"measurement": "IC50", "setting": "Homo sapiens, Jurkat, 72 h", "result": 4.15, "unit": "nM"}
    ]},
    {"molecule": "CCCCOc1ccc(-c2ccc3c(c2)CC(C)(C)[C@H]3NC(=O)O[C@@H]2CN3CCC2CC3)cc1Cl", "note": "[Example 17, (S)-quinuclidin-3-yl((R)-5-(4-butoxy-3-chlorophenyl)-2,2-dimethyl-2,3-dihydro-1H-inden-1-yl)carbamate]", "values": [
      {"measurement": "IC50", "setting": "Homo sapiens, Jurkat, 72 h", "result": 20.6, "unit": "nM"}
    ]},
    {"molecule": "CCOc1ccc(-c2ccc3c(c2)CC(C)(C)[C@H]3NC(=O)O[C@@H]2CN3CCC2CC3)cc1F", "note": "[Example 19, (S)-quinuclidin-3-yl((R)-5-(4-ethoxy-3-fluorophenyl)-2,2-dimethyl-2,3-dihydro-1H-inden-1-yl)carbamate]", "values": [
      {"measurement": "IC50", "setting": "Homo sapiens, Jurkat, 72 h", "result": 56, "unit": "nM"}
    ]},
    {"molecule": "CCOc1ccc(-c2cc3c(cc2F)[C@H](NC(=O)O[C@@H]2CN4CCC2CC4)C(C)(C)C3)cc1", "note": "[Example 56, (S)-quinuclidin-3-yl((R)-5-(4-ethoxyphenyl)-6-fluoro-2,2-dimethyl-2,3-dihydro-1H-inden-1-yl)carbamate]", "values": [
      {"measurement": "IC50", "setting": "Homo sapiens, Jurkat, 72 h", "result": 10.7, "unit": "nM"}
    ]},
    {"molecule": "CCc1ccc(-c2cc3c(cc2F)[C@H](NC(=O)O[C@@H]2CN4CCC2CC4)C(C)(C)C3)cc1", "note": "[Example 58, (S)-quinuclidin-3-yl((R)-5-(4-ethylphenyl)-6-fluoro-2,2-dimethyl-2,3-dihydro-1H-inden-1-yl)carbamate]", "values": [
      {"measurement": "IC50", "setting": "Homo sapiens, Jurkat, 72 h", "result": 5.74, "unit": "nM"}
    ]},
    {"molecule": "CCCCc1ccc(-c2cc3c(cc2F)[C@H](NC(=O)O[C@@H]2CN4CCC2CC4)C(C)(C)C3)cc1", "note": "[Example 60, (S)-quinuclidin-3-yl((R)-5-(4-butylphenyl)-6-fluoro-2,2-dimethyl-2,3-dihydro-1H-inden-1-yl)carbamate]", "values": [
      {"measurement": "IC50", "setting": "Homo sapiens, Jurkat, 72 h", "result": 1, "unit": "nM"}
    ]},
    {"molecule": "CCCCOc1ccc(-c2cc3c(cc2F)[C@H](NC(=O)O[C@@H]2CN4CCC2CC4)C(C)(C)C3)cc1", "note": "[Example 70, (S)-quinuclidin-3-yl((R)-5-(4-butoxyphenyl)-6-fluoro-2,2-dimethyl-2,3-dihydro-1H-inden-1-yl)carbamate]", "values": [
      {"measurement": "IC50", "setting": "Homo sapiens, Jurkat, 72 h", "result": 0.6, "unit": "nM"}
    ]},
    {"molecule": "CCc1cccc(-c2cc3c(cc2F)[C@H](NC(=O)O[C@@H]2CN4CCC2CC4)C(C)(C)C3)c1", "note": "[Example 71, (S)-quinuclidin-3-yl((R)-5-(3-ethylphenyl)-6-fluoro-2,2-dimethyl-2,3-dihydro-1H-inden-1-yl)carbamate]", "values": [
      {"measurement": "IC50", "setting": "Homo sapiens, Jurkat, 72 h", "result": 12.7, "unit": "nM"}
    ]},
    {"molecule": "CC(C)c1cccc(-c2cc3c(cc2F)[C@H](NC(=O)O[C@@H]2CN4CCC2CC4)C(C)(C)C3)c1", "note": "[Example 73, (S)-quinuclidin-3-yl((R)-6-fluoro-5-(3-isopropylphenyl)-2,2-dimethyl-2,3-dihydro-1H-inden-1-yl)carbamate]", "values": [
      {"measurement": "IC50", "setting": "Homo sapiens, Jurkat, 72 h", "result": 10.8, "unit": "nM"}
    ]},
    {"molecule": "CC(C)Cc1cccc(-c2cc3c(cc2F)[C@H](NC(=O)O[C@@H]2CN4CCC2CC4)C(C)(C)C3)c1", "note": "[Example 74, (S)-quinuclidin-3-yl((R)-6-fluoro-5-(3-isobutylphenyl)-2,2-dimethyl-2,3-dihydro-1H-inden-1-yl)carbamate]", "values": [
      {"measurement": "IC50", "setting": "Homo sapiens, Jurkat, 72 h", "result": 19.4, "unit": "nM"}
    ]},
    {"molecule": "COc1cccc(-c2cc3c(cc2F)[C@H](NC(=O)O[C@@H]2CN4CCC2CC4)C(C)(C)C3)c1", "note": "[Example 75, (S)-quinuclidin-3-yl((R)-6-fluoro-5-(3-methoxyphenyl)-2,2-dimethyl-2,3-dihydro-1H-inden-1-yl)carbamate]", "values": [
      {"measurement": "IC50", "setting": "Homo sapiens, Jurkat, 72 h", "result": 14.8, "unit": "nM"}
    ]},
    {"molecule": "CCOc1cccc(-c2cc3c(cc2F)[C@H](NC(=O)O[C@@H]2CN4CCC2CC4)C(C)(C)C3)c1", "note": "[Example 76, (S)-quinuclidin-3-yl((R)-5-(3-ethoxyphenyl)-6-fluoro-2,2-dimethyl-2,3-dihydro-1H-inden-1-yl)carbamate]", "values": [
      {"measurement": "IC50", "setting": "Homo sapiens, Jurkat, 72 h", "result": 33.4, "unit": "nM"}
    ]},
    {"molecule": "CCCOc1cccc(-c2cc3c(cc2F)[C@H](NC(=O)O[C@@H]2CN4CCC2CC4)C(C)(C)C3)c1", "note": "[Example 77, (S)-quinuclidin-3-yl((R)-6-fluoro-2,2-dimethyl-5-(3-propoxyphenyl)-2,3-dihydro-1H-inden-1-yl)carbamate]", "values": [
      {"measurement": "IC50", "setting": "Homo sapiens, Jurkat, 72 h", "result": 23.7, "unit": "nM"}
    ]},
    {"molecule": "CC(C)COc1cccc(-c2cc3c(cc2F)[C@H](NC(=O)O[C@@H]2CN4CCC2CC4)C(C)(C)C3)c1", "note": "[Example 78, (S)-quinuclidin-3-yl((R)-6-fluoro-5-(3-isobutoxyphenyl)-2,2-dimethyl-2,3-dihydro-1H-inden-1-yl)carbamate]", "values": [
      {"measurement": "IC50", "setting": "Homo sapiens, Jurkat, 72 h", "result": 17.6, "unit": "nM"}
    ]},
    {"molecule": "CCCCOc1cccc(-c2cc3c(cc2F)[C@H](NC(=O)O[C@@H]2CN4CCC2CC4)C(C)(C)C3)c1", "note": "[Example 79, (S)-quinuclidin-3-yl((R)-5-(3-butoxyphenyl)-6-fluoro-2,2-dimethyl-2,3-dihydro-1H-inden-1-yl)carbamate]", "values": [
      {"measurement": "IC50", "setting": "Homo sapiens, Jurkat, 72 h", "result": 6, "unit": "nM"}
    ]},
    {"molecule": "CCOc1c(C)cc(-c2cc3c(cc2F)[C@H](NC(=O)O[C@@H]2CN4CCC2CC4)C(C)(C)C3)cc1C", "note": "[Example 80, (S)-quinuclidin-3-yl((R)-5-(4-ethoxy-3,5-dimethylphenyl)-6-fluoro-2,2-dimethyl-2,3-dihydro-1H-inden-1-yl)carbamate]", "values": [
      {"measurement": "IC50", "setting": "Homo sapiens, Jurkat, 72 h", "result": 51, "unit": "nM"}
    ]}
  ]
}
